Reference: patent US20190247350A1, “COMPOSITION FOR IMPROVING DECREASED ABSORPTION IN DIGESTIVE TRACT, AND COMPOSITION FOR PROMOTING ABSORPTION IN DIGESTIVE TRACT” (AJINOMOTO CO., INC., priority 2016, published 2019)

Key:
Format in all cases: in vivo, mouse
aquaporin gene (Aqa3) = assay: Expression of aquaporin gene in small intestine after running exercise (GeneChip array); conditions: feed with 2 wt % for 7 days, 4 hr running, small intestine 1 hr after running; compared to Ex group; P<0.01
From the text: (§1) 7-Week-old male CD2F1 mice (CHARLES RIVER LABORATORIES JAPAN, INC.) were divided into 4 groups (“Sed”, “Ex”, “Ex+Gln” and “Ex+Cys2”) (n=6/group), Sed group and Ex group were made to ingest a standard purified feed (AIN-93G composition), Ex+Gln group was made to ingest a standard purified feed (AIN-93G composition) added with glutamine (2 wt %) by replacing casein, and Ex+Cys2 group was made to ingest a standard purified feed (AIN-93G composition) added with cystine (2 wt %) by replacing casein, each for 7 days. Thereafter, each group was fasted overnight, and Ex group, Ex+Gln group and Ex+Cys2 group were made to run in a running wheel for 4 hr (speed=10.5 m/min). Sed group was continuously fasted during the running exercise of Ex group, Ex+Gln group and Ex+Cys2 group. At 1 hr after completion of running, the small intestine was collected from the mice of each group, and total RNA was extracted using Rneasy Lipid Tissue Mini Kit (QIAGEN). GeneChip Mouse Genome 430 2.0 (3′IVT) array (Affymetrix) was used for the measurement of comprehensive gene expression. Difference in the gene expression level of each group was tested by Dunnett's test following one-way analysis of variance. […]

[1] = tested on: amino acid transporter gene (Slc7a7); assay: Expression of amino acid transporter gene in small intestine after running exercise (GeneChip array); conditions: feed with 2 wt % for 7 days, 4 hr running, small intestine 1 hr after running; compared to Ex group; tendency toward significance at P=0.1
From the text: as §1

[2] = tested on: ABC protein G8 gene (Abcg8); assay: Expression of ABC protein G8 gene in small intestine after running exercise (GeneChip array); conditions: feed with 2 wt % for 7 days, 4 hr running, small intestine 1 hr after running; compared to Ex group; P<0.05
From the text: as §1

[3] = tested on: folic acid transporter gene (Slc46a1); assay: Expression of folic acid transporter gene in small intestine after running exercise (GeneChip array); conditions: feed with 2 wt % for 7 days, 4 hr running, small intestine 1 hr after running; compared to Ex group; P<0.05
From the text: as §1

[4] = tested on: scavenge receptor class B gene (Scarb1); assay: Expression of scavenge receptor class B gene in small intestine after running exercise (GeneChip array); conditions: feed with 2 wt % for 7 days, 4 hr running, small intestine 1 hr after running; compared to Ex group; tendency toward significance at P<0.1
From the text: as §1

biotinidase gene (Btd) = assay: Expression of biotinidase gene in small intestine after running exercise (GeneChip array); conditions: feed with 2 wt % for 7 days, 4 hr running, small intestine 1 hr after running; compared to Ex group; P<0.01
From the text: as §1

[5] = tested on: peptide transporter gene (Slc15a1); assay: Expression of peptide transporter gene in small intestine after running exercise (GeneChip array); conditions: feed with 2 wt % for 7 days, 4 hr running, small intestine 1 hr after running; compared to Ex group; P<0.01
From the text: as §1

[6] = tested on: ABC protein G5 gene (Abcg5); assay: Expression of ABC protein G5 gene in small intestine after running exercise (GeneChip array); conditions: feed with 2 wt % for 7 days, 4 hr running, small intestine 1 hr after running; compared to Ex group; P<0.05
From the text: as §1

[7] = tested on: small intestine (everted intestine sample); assay: Glucose absorption capacity of everted intestine sample after running exercise (Experimental Example 2); conditions: feed with cystine 2 wt % for 7 days, 4 hr running
From the text: 7-Week-old male CD2F1 mice (CHARLES RIVER LABORATORIES JAPAN, INC.) were divided into 3 groups (“Sed”, “Ex” and “Ex+Cys2”) (n=12/group), Sed group and Ex group were made to ingest a standard purified feed (AIN-93G composition), and Ex+Cys2 group was made to ingest a standard purified feed (AIN-93G composition) added with cystine (2 wt %) by replacing casein, each for 7 days. Thereafter, each group was fasted overnight, and Ex group and Ex+Cys2 group were made to run in a running wheel for 4 hr (speed=10.5 m/min). Sed group was continuously fasted during the running exercise of Ex group and Ex+Cys2 group. […]
Ringer buffer containing 10 mM glucose was added to the serous membrane side and the villus side of the produced everted intestine sample of each group, and the sample was incubated under oxygen supply at 37° C. for 90 min. Thereafter, the everted intestine sample was taken out, and the glucose concentration of the Ringer buffer on the serous membrane side and the villus side was measured using a glucose measurement kit (“glucose CII Test Wako” (Wako Pure Chemical Industries, Ltd.)). The glucose absorption capacity of each group was calculated from the difference in the glucose concentration between the villus side and the serous membrane side. […]

[8] = tested on: small intestine (everted intestine sample); assay: Glucose absorption capacity of everted intestine sample without exercise (Experimental Example 3); conditions: non-exercise, feed with cystine 2 wt % for 7 days, 10 mM glucose, 37° C., 90 min, Sed+Cys2 compared to Sed group
From the text: 7-Week-old male CD2F1 mice (CHARLES RIVER LABORATORIES JAPAN, INC.) were divided into 2 groups (“Sed” and “Sed+Cys2”) (n=6/group), Sed group was made to ingest a standard purified feed (AIN-93G composition), and Sed+Cys2 group was made to ingest a standard purified feed (AIN-93G composition) added with cystine (2 wt %) by replacing casein, each for 7 days. Then, each group was fasted overnight, and the small intestine was collected, everted intestine samples were produced according to the method of KirK et al. (ADVANCES In Physiology Education 37 (4) 415-426 (2013), which is incorporated herein by reference in its entirety). […]
Ringer buffer containing 10 mM glucose was added to the serous membrane side and the villus side of the everted intestine sample of each group, and the sample was incubated under oxygen supply at 37° C. for 90 min. Thereafter, the everted intestine sample was taken out, and the glucose concentration of the Ringer buffer on the serous membrane side and the villus side was measured using a glucose measurement kit (“glucose CII Test Wako” (Wako Pure Chemical Industries, Ltd.)). The glucose absorption capacity of each group was calculated from the difference in the glucose concentration between the villus side and the serous membrane side. The difference in the glucose absorption capacity of each group was determined by a comparison t-test between two groups. […]

[9] = tested on: sodium-dependent glucose transporter gene (SGLT1); assay: Expression of sodium-dependent glucose transporter gene in small intestine after running exercise (real-time PCR); conditions: feed with cystine 2 wt % for 7 days, 4 hr running; compared to Ex group; tendency toward significance at P<0.1
From the text: 7-Week-old male CD2F1 mice (CHARLES RIVER LABORATORIES JAPAN, INC.) were divided into 3 groups (“Sed”, “Ex” and “Ex+Cys2”) (n=12/group), Sed group and Ex group were made to ingest a standard purified feed (AIN-93G composition), and Ex+Cys2 group was made to ingest a standard purified feed (AIN-93G composition) added with cystine (2 wt %) by replacing casein, each for 7 days. Thereafter, each group was fasted overnight, and Ex group and Ex+Cys2 group were made to run in a running wheel for 4 hr (speed=10.5 m/min). Sed group was continuously fasted during the running exercise of Ex group and Ex+Cys2 group. Immediately after completion of running, the small intestine was collected, everted intestine samples were produced according to the method of KirK et al. (ADVANCES In Physiology Education 37 (4) 415-426 (2013), which is incorporated herein by reference in its entirety). As the everted intestine sample, a part of 8 cm below the point of 4 cm from the pyloric part was used.
Furthermore, using Rneasy Lipid Tissue Mini Kit (QIAGEN), total RNA was extracted from a part of the small intestine used for producing the everted intestine sample. QuantStudio 12K Flex Real-Time PCR System (Thermo Fisher Scientific) was used for the measurement of the expression of sodium-dependent glucose transporter gene (SGLT1). […]

[10] = tested on: sodium-dependent multivitamin transporter gene (Slc5a6); assay: Expression of sodium-dependent multivitamin transporter gene in small intestine after running exercise (GeneChip array); conditions: feed with 2 wt % for 7 days, 4 hr running, small intestine 1 hr after running; compared to Ex group; P<0.05
From the text: as §1

| SMILES | expression level of aquaporin gene (mRNA level) (aquaporin gene (Aqa3)) | expression level of amino acid transporter gene (mRNA level) [1] | expression level of ABC protein G8 gene (mRNA level) [2] | expression level of folic acid transporter gene (mRNA level) [3] | expression level of scavenge receptor class B gene (mRNA level) [4] | expression level of biotinidase gene (mRNA level) (biotinidase gene (Btd)) | expression level of peptide transporter gene (mRNA level) [5] | expression level of ABC protein G5 gene (mRNA level) [6] | glucose absorption capacity (difference in glucose concentration between villus side and serous membrane side) ([7]; 10 mM glucose, 37° C., 90 min, compared to Ex group) | glucose absorption capacity (difference in glucose concentration between villus side and serous membrane side) ([7]; Ex+Cys2 compared to Sed group (no exercise)) | glucose absorption capacity (difference in glucose concentration between villus side and serous membrane side) [8] | expression of SGLT1 (mRNA amount) [9] | expression level of sodium-dependent multivitamin transporter gene (mRNA level) [10] |
| --- | --- | --- | --- | --- | --- | --- | --- | --- | --- | --- | --- | --- | --- |
| NC(=O)CCC(N)C(=O)O (stereo not drawn) [glutamine, 2-amino-4-carbamoylbutanoic acid] | increased | increased | increased | increased | increased | increased |  |  |  |  |  |  |  |
| NC(CSSCC(N)C(=O)O)C(=O)O (stereo not drawn) [cystine, 3,3′-dithiobis(2-aminopropanoic acid)] | increased |  |  |  |  | increased | increased | increased | significantly (P<0.05) improved | higher | improved | tended to increase | increased |
